The values that follow come from US20220279826A1, “OFF-FLAVOR SUPPRESSING AGENT” (AJINOMOTO CO., INC., priority 2019, published 2022).

Test [1] can be described thus: Sensory evaluation in sodium acetate aqueous solution (Experimental Example 18). To be noted: Table 33. As for the experimental part: Each compound shown in the following Table 33 was added to an aqueous solution prepared by dissolving sodium acetate (1 part by weight) and acetic acid (0.3 parts by weight) in water (98.7 parts by weight) (hereinafter at times referred to as sodium acetate aqueous solution) so as to achieve the concentration (addition concentration) shown in the following Table 33 to prepare each evaluation sample.
Based on the following evaluation criteria, a panel of four experts determined by consensus the intensity of off-tastes (bitter taste, harsh taste, astringent taste) derived from sodium acetate in each evaluation sample, by comparison with a sodium acetate aqueous solution without addition of any compound (negative control).

Test [2] in a line: Sensory evaluation in granular fava bean protein (Experimental Example 16). The settings on record: Table 30. The procedure: Each compound shown in the following Table 30 was added to granular fava bean protein (manufactured by Schouten) so as to achieve the concentration (addition concentration) shown in the following Table 30 to prepare each evaluation sample.
Based on the following evaluation criteria, a panel of four experts determined by consensus the intensity of off-tastes (bitter taste, harsh taste, astringent taste) derived from fava bean protein in each evaluation sample, by comparison with granular fava bean protein without addition of any compound (negative control).

Test [3] is described as follows: Sensory evaluation in 0.12 wt % aspartame aqueous solution (Experimental Example 12). To be noted: Table 26. As for the experimental part: Each compound shown in the following Table 26 was added to a 0.12 wt % aspartame aqueous solution (an aqueous solution prepared by dissolving aspartame (0.12 parts by weight) in ion exchange water (99.88 parts by weight)) so as to achieve the concentration (addition concentration) shown in the following Table 26 to prepare each evaluation sample.
Based on the following evaluation criteria, a panel of three experts determined by consensus the intensity of off-tastes (bitter taste, harsh taste, metallic taste) derived from aspartame in each evaluation sample, by comparison with a 0.12 wt % aspartame aqueous solution without addition of any compound (negative control).

A short description of test [4]: Sensory evaluation of off-taste suppressing effect in 0.8 wt % potassium chloride aqueous solution (Experimental Examples 1 and 2).
A short description of test [5]: Sensory evaluation in 1.5 wt % disodium phosphate aqueous solution (Experimental Example 19). The settings on record: Table 34. As for the experimental part:
Each compound shown in the following Table 34 was added to a 1.5 wt % disodium phosphate aqueous solution (aqueous solution prepared by dissolving disodium phosphate (1.5 parts by weight) in water (98.5 parts by weight)) so as to achieve the concentration (addition concentration) shown in the following Table 34 to prepare each evaluation sample.
Based on the following evaluation criteria, a panel of four experts determined by consensus the intensity of off-tastes (bitter taste, harsh taste, astringent taste) derived from disodium phosphate in each evaluation sample, by comparison with a 1.5 wt % disodium phosphate aqueous solution without addition of any compound (negative control).

Test [6] is described as follows: Sensory evaluation in Japanese noodle soup base solution with potassium chloride (0.2 g) (Experimental Example 5). To be noted: for off-taste suppressing effect: Japanese noodle soup base solution, potassium chloride 0.2 g; for intensity of off-tastes (bitter taste, metallic taste, harsh taste, astringent taste) derived from potassium chloride: base solution of Table 19. As for the experimental part:
Potassium chloride (0.2 g) was added to a commercially available Japanese noodle soup base (manufactured by Yamaki Co., Ltd.) (11.1 g), and dissolved by adding hot water (88.7 g) to prepare a base solution.
Each compound shown in the following Table 19 was added to the base solution prepared above so as to achieve the concentration (addition concentration) shown in the following Table 19 to prepare each evaluation sample.
Based on the following evaluation criteria, a panel of two experts determined by consensus the intensity of off-tastes (bitter taste, metallic taste, harsh taste, astringent taste) derived from potassium chloride in each evaluation sample, by reference to each potassium chloride aqueous solution adjusted to 0.2 wt %, 0.15 wt % or 0.1 wt %.

Test [7] can be described thus: Sensory evaluation in chicken broth solution with potassium chloride (Experimental Example 3). To be noted: chicken broth solution with 0.8 wt % potassium chloride. The procedure:
As shown in the following (1) to (3) below, 0.8 wt % of potassium chloride was added to a food base powder corresponding to 0.5 wt % of sodium chloride to prepare each base solution having an off-taste derived from potassium chloride.
Potassium chloride (0.8 g) was added to a commercially available powdered chicken broth mix (manufactured by Ajinomoto Co., Inc., trade name “Marutorigara Soup”) (1.0 g), hot water (98.2 g) was added to dissolve the mixture to prepare a base solution (chicken broth soup solution).
Each compound shown in the following Tables 15 to 17 was added to each base solution (ramen noodle soup solution, chicken broth solution, potage solution) so as to achieve the concentration (addition concentration) shown in the following Tables 15 to 17 to prepare each evaluation sample.
By a method similar to that in Experimental Example 1, a panel of two experts determined the intensity of off-tastes (bitter taste, metallic taste, harsh taste, astringent taste) derived from potassium chloride in each evaluation sample.

Where [8] appears, read: 0.8 wt % potassium chloride aqueous solution, addition concentration 100 weight ppb (12.5 weight ppm with respect to potassium chloride).
Where [9] appears, read: 0.8 wt % potassium chloride aqueous solution, addition concentration 500 weight ppb (62.5 weight ppm with respect to potassium chloride).
Setting [10] is: potassium chloride aqueous solutions, Tables 1 to 14.
[11] abbreviates: addition concentration 100 weight ppb (50 weight ppm with respect to potassium chloride).
[12] abbreviates: 0.8 wt % potassium chloride aqueous solution, addition concentration 50 weight ppb (6.25 weight ppm with respect to potassium chloride).
Where [13] appears, read: in words, potassium chloride aqueous solutions, Tables 1 to 14.
Setting [14] is: 0.8 wt % potassium chloride aqueous solution, addition concentration 10 weight ppb (1.25 weight ppm with respect to potassium chloride).

For `CC(=O)c1ccc(C)o1` [2-acetyl-5-methylfuran], the “intensity of off-tastes (bitter taste, harsh taste, astringent taste) derived from sodium acetate” value (from here on “intensity of off-tastes … from sodium acetate”) in test [1] is “suppressed”. Besides, the “intensity of off-tastes (bitter taste, harsh taste, astringent taste) derived from fava bean protein” value (“intensity of off-tastes … from fava bean protein” for short) in test [2] was “suppressed”. Further, the “intensity of off-tastes (bitter taste, harsh taste, metallic taste) derived from aspartame” value (“intensity of off-tastes … from aspartame” below) in test [3] is “suppressed”. Besides, the off-taste suppressing effect result is “+ (intensity of the same level as potassium chloride aqueous solution with potassium chloride concentration of not less than 0.75 wt % and less than 0.8 wt %)” in test [4] (setting [8]); “++ (intensity of the same level as potassium chloride aqueous solution with potassium chloride concentration of not less than 0.7 wt % and less than 0.75 wt %)” in test [4] (setting [9]); “+ (intensity of the same level as potassium chloride aqueous solution with potassium chloride concentration of not less than 0.75 wt % and less than 0.8 wt %)” in test [4] (0.8 wt % potassium chloride aqueous solution, addition concentration 1000 weight ppb (125 weight ppm with respect to potassium chloride)); “+ (intensity of the same level as potassium chloride aqueous solution with potassium chloride concentration of not less than 0.75 wt % and less than 0.8 wt %)” in test [4] (0.8 wt % potassium chloride aqueous solution, addition concentration 2000 weight ppb (250 weight ppm with respect to potassium chloride)). Further, the “intensity of off-tastes (bitter taste, metallic taste, harsh taste, astringent taste) derived from potassium chloride” value (“intensity … from potassium chloride” for short) in test [4] (setting [10]) is “decreased”. The “intensity of off-tastes (bitter taste, harsh taste, astringent taste) derived from disodium phosphate” value (“intensity … from disodium phosphate” for short) in test [5] is given as “suppressed”.
Consider `CC(=O)c1ccco1` [2-acetylfuran], for which the off-taste suppressing effect result was “++ (intensity of the same level as potassium chloride aqueous solution with potassium chloride concentration of not less than 0.1 wt % and less than 0.15 wt %)” in test [6] (setting [11]); “++ (intensity of the same level as potassium chloride aqueous solution with potassium chloride concentration of not less than 0.7 wt % and less than 0.75 wt %)” in test [7] (addition concentration 100 ppb (12.5 weight ppm with respect to potassium chloride)); “++ (intensity of the same level as potassium chloride aqueous solution with potassium chloride concentration of not less than 0.7 wt % and less than 0.75 wt %)” in test [4] (setting [12]); “+++ (intensity of the same level as potassium chloride aqueous solution with potassium chloride concentration of not less than 0.65 wt % and less than 0.7 wt %)” in test [4] (setting [8]); “+ (intensity of the same level as potassium chloride aqueous solution with potassium chloride concentration of not less than 0.75 wt % and less than 0.8 wt %)” in test [4] (setting [9]); “high” in test [4] (setting [13]). The “intensity … from potassium chloride” value in test [6] and in test [4] (setting [10]) was “decreased” each time. In addition, in test [1], the “intensity of off-tastes … from sodium acetate” value is on record as “suppressed”. The “intensity of off-tastes … from fava bean protein” value in test [2] is on record as “suppressed”. In addition, the “intensity of off-tastes … from aspartame” value in test [3] is recorded as “suppressed”. For the same molecule, in test [5], the “intensity … from disodium phosphate” value was “suppressed”.
On to `CC1OCCC1=O` (stereo not shown) [2-methyltetrahydrofuran-3-one], for which the off-taste suppressing effect result in test [6] (setting [11]) is “+ (intensity of the same level as potassium chloride aqueous solution with potassium chloride concentration of not less than 0.15 wt % and less than 0.2 wt %)”; in test [4] (setting [14]), “++ (intensity of the same level as potassium chloride aqueous solution with potassium chloride concentration of not less than 0.7 wt % and less than 0.75 wt %)”; in test [4] (setting [12]), “++ (intensity of the same level as potassium chloride aqueous solution with potassium chloride concentration of not less than 0.7 wt % and less than 0.75 wt %)”; in test [4] (setting [8]), “++ (intensity of the same level as potassium chloride aqueous solution with potassium chloride concentration of not less than 0.7 wt % and less than 0.75 wt %)”; in test [4] (setting [9]) it was “+ (intensity of the same level as potassium chloride aqueous solution with potassium chloride concentration of not less than 0.75 wt % and less than 0.8 wt %)”. Further, the “intensity … from potassium chloride” value in test [6] and in test [4] (setting [10]) was “decreased” throughout. In test [1], the “intensity of off-tastes … from sodium acetate” value is “suppressed”. Further, in test [2], the “intensity of off-tastes … from fava bean protein” value is reported as “suppressed”. Further, in test [3], the “intensity of off-tastes … from aspartame” value is listed as “suppressed”. Also, the “intensity … from disodium phosphate” value in test [5] was “suppressed”.
As to `CC1=C(O)C(=O)CC1` [cyclotene], the off-taste suppressing effect result in test [6] (addition concentration 25 weight ppb (12.5 weight ppm with respect to potassium chloride)) was “+++ (intensity of the same level as potassium chloride aqueous solution with potassium chloride concentration of less than 0.1 wt %)”; in test [7] (addition concentration 10 ppb (1.25 weight ppm with respect to potassium chloride)), “+++ (intensity of the same level as potassium chloride aqueous solution with potassium chloride concentration of not less than 0.65 wt % and less than 0.7 wt %)”; in test [4] (0.8 wt % potassium chloride aqueous solution, addition concentration 1 weight ppb (0.125 weight ppm with respect to potassium chloride)), “+ (intensity of the same level as potassium chloride aqueous solution with potassium chloride concentration of not less than 0.75 wt % and less than 0.8 wt %)”; in test [4] (0.8 wt % potassium chloride aqueous solution, addition concentration 5 weight ppb (0.625 weight ppm with respect to potassium chloride)) it was “++ (intensity of the same level as potassium chloride aqueous solution with potassium chloride concentration of not less than 0.7 wt % and less than 0.75 wt %)”; in test [4] (setting [14]) it was “+++ (intensity of the same level as potassium chloride aqueous solution with potassium chloride concentration of not less than 0.65 wt % and less than 0.7 wt %)”; in test [4] (setting [12]) it was “+++ (intensity of the same level as potassium chloride aqueous solution with potassium chloride concentration of not less than 0.65 wt % and less than 0.7 wt %)”. In addition, the off-taste suppressing effect entry is “++ (intensity of the same level as potassium chloride aqueous solution with potassium chloride concentration of not less than 0.7 wt % and less than 0.75 wt %)” in test [4] (setting [8]); “high” in test [4] (setting [13]). In addition, the “intensity … from potassium chloride” value in test [6] and in test [4] (setting [10]) was “decreased” throughout. The “intensity of off-tastes … from sodium acetate” value in test [1] is “suppressed”. Moreover, the “intensity of off-tastes … from fava bean protein” value in test [2] is listed as “suppressed”. Moreover, the “intensity of off-tastes … from aspartame” value in test [3] is listed as “suppressed”. The “intensity … from disodium phosphate” value in test [5] is on record as “suppressed”.
